{"source": "patent US9994556B2", "about": "“Triazole modified coumarin and biphenyl amide-based HSP90 inhibitors” (THE UNIVERSITY OF KANSAS, priority 2014, dated 2018)", "key": {"PC3-MM2 cells": {"system": "PC3-MM2 cells", "assay": "Sulforhodamine B assay, PC3-MM2", "format": "cell-based", "details": "Homo sapiens, PC3MM2; Table 2 biphenyl triazole analogues; mean ± standard deviation", "in_short": "(§1)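 Cells treated over a 10-point dose range, fixed with trichloroacetic acid, stained with sulforhodamine B, solubilised in 10 mM Tris, absorbance at 565 nm. Growth inhibition computed against time-zero and untreated wells; curves fitted by sigmoidal non-linear regression.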"}, "JMAR cell line": {"system": "JMAR cell line", "assay": "Promega CellTiter-Glo (CTG) luminescent assay, JMAR", "format": "cell-based", "details": "Table 2 biphenyl triazole analogues, 72 hr, mean ± standard deviation", "in_short": "(§2)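 Antiproliferative activity measured after 72 hr compound treatment by CellTiter-Glo luminescence (ATP-based viability). Selected data cross-checked by MTS/PMS viability assay.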"}, "SKBr3 cells": {"system": "SKBr3 cells", "assay": "MTS/PMS cell viability assay, SKBr3", "format": "cell-based", "details": "Homo sapiens, SK-BR-3; Table 2 biphenyl triazole analogues; 72 hr; mean ± standard deviation; read-out: IC50 SKBr3", "in_short": "(§3)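 Cells seeded at 2000/well in Advanced DMEM/F12 with 10% FBS, attached overnight, then exposed to compound (1% DMSO final) for 72 hr at 37° C. Viable cells counted by MTS/PMS, normalised to 1% DMSO as 100%; IC50 from triplicate experiments.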"}, "[1]": {"system": "heat shock proteins Hsp27, Hsp70 and Hsp90", "assay": "Western blot analyses of heat shock proteins in MCF-7 cell lysates", "format": "cell-based, human", "details": "MCF-7 cells, 24 h, increasing concentrations of 5f", "experimental": "(§4) MCF-7 cells were cultured as described above and treated with various concentrations of drug, Geldanamycin (GDA or G) in DMSO (1% DMSO final concentration), or vehicle (DMSO) for 24 hr. Cells were harvested in cold PBS and lysed in RIPA lysis buffer containing 1 mM PMSF, 2 mM sodium orthovanadate, and protease inhibitors on ice for 1 hr. Lysates were clarified at 14000 g for 10 min at 4° C. Protein concentrations were determined using the Pierce BCA protein assay kit per the manufacturer's instructions. Equal amounts of protein (15 μg) were electrophoresed under reducing conditions, transferred to a PVDF membrane, and immunoblotted with the corresponding specific antibodies. Membranes were incubated with an appropriate horseradish peroxidase-labeled secondary antibody, developed with a chemiluminescent substrate, and visualized."}, "MCF-7 cells": {"system": "MCF-7 cells", "assay": "MTS/PMS cell viability assay, MCF-7", "format": "cell-based", "details": "Homo sapiens, MCF7", "in_short": "as §3"}, "Hsp90 C-terminus": {"system": "Hsp90 C-terminus", "assay": "Proteolytic fingerprinting assay of Hsp90 from rabbit reticulocyte lysate", "format": "binding", "details": "1 mM compound; band not detected for vehicle control", "experimental": "e) Proteolytic Fingerprinting Assay\nRabbit reticulocyte (Green Hectares) incubated under conditions of protein synthesis at 30° C. in the presence of compound or vehicle (1% DMSO) for 10 minutes. Each reaction mixture contained 66.6% rabbit reticulocyte and 33.3% ATP regenerating system (10 mM creatine phosphate and 20 μg mL^−1 creatine phosphokinase) and a final concentration of 75 mM KCl. Each reaction mixture contained the indicated amount of compound. After incubating, the samples were immediately placed on ice and the indicated amount of TPCK-treated trypsin (Worthington) was added to each sample. The samples digested on ice for an additional 6 minutes and the reactions were quenched by the addition of Laemmli sample buffer followed by immediate boiling. Equal amounts of each sample were electrophoresed under reducing conditions (12% acrylamide gels), transferred to PVDF, and immunoblotted with an antibody specific to the Hsp90 C-terminus. Membranes were incubated with an appropriate horseradish peroxidase-labeled secondary antibody, developed with a chemiluminescent substrate, and visualized."}, "LNCaP cells": {"system": "LNCaP cells", "assay": "Sulforhodamine B assay, LNCaP", "format": "cell-based", "details": "Homo sapiens, Table 2 biphenyl triazole analogues, mean ± standard deviation", "in_short": "as §1"}, "[2]": {"system": "Hsp90 client proteins Her2, Akt, Raf-1 and CDK6", "assay": "Western blot analyses of Hsp90 client protein degradation in MCF-7 cell lysates", "format": "cell-based, human", "experimental": "as §4"}, "MDA-MB-468LN cell line": {"system": "MDA-MB-468LN cell line", "assay": "Promega CellTiter-Glo (CTG) luminescent assay, MDA-MB-468LN", "format": "cell-based", "details": "Homo sapiens; Table 2 biphenyl triazole analogues; 72 hr; mean ± standard deviation", "in_short": "as §2"}, "MDA1986 cell line": {"system": "MDA1986 cell line", "assay": "Promega CellTiter-Glo (CTG) luminescent assay, MDA1986", "format": "cell-based", "details": "Table 2 biphenyl triazole analogues, 72 hr, mean ± standard deviation, read-out: IC50 MDA1986", "in_short": "as §2"}}, "note": "Entries after “also recorded” stand apart in the source; their conditions may differ. Read-outs that look alike come from different tables or passages of the source."}
{"smiles": "Cc1ccc(Cn2cc(C(=O)Nc3ccc(-c4ccc(OC5CCN(C)CC5)cc4)cc3)nn2)cc1", "note": "[5f, 1-(4-Methylbenzyl)-N-(4′-((1-methylpiperidin-4-yl)oxy)-[1,1′-biphenyl]-4-yl)-1H-1,2,3-triazole-4-carboxamide]", "values": [{"measurement": "IC50", "setting": "PC3-MM2 cells", "result": "0.36 ± 0.04", "unit": "µM"}, {"measurement": "IC50", "setting": "JMAR cell line", "result": "0.42 ± 0.07", "unit": "µM"}, {"measurement": "IC50", "setting": "SKBr3 cells", "result": "0.17 ± 0.03", "unit": "µM"}, {"measurement": "heat shock proteins Hsp27, Hsp70, or Hsp90 levels", "setting": "[1]", "result": "No increase"}, {"measurement": "IC50", "setting": "MCF-7 cells; Table 2 biphenyl triazole analogues, 72 hr, mean ± standard deviation, read-out: IC50 MCF-7", "result": "0.12 ± 0.01", "unit": "µM"}, {"measurement": "IC50", "setting": "MCF-7 cells; read-out: IC50 against MCF-7 cell line", "result": 0.12, "unit": "µM"}, {"measurement": "50 kDa Hsp90 fragment on trypsin proteolysis (C-terminal Hsp90 antibody)", "setting": "Hsp90 C-terminus", "result": 50, "unit": "kDa band was detected"}, {"measurement": "IC50", "setting": "LNCaP cells", "result": "0.2 ± 0.04", "unit": "µM"}, {"measurement": "client proteins Her2, Akt, Raf-1 and CDK6 (Western blot, concentration series)", "setting": "[2]; MCF-7 cells, 24 h, increasing concentrations", "result": "degraded in a concentration-dependent manner"}, {"measurement": "concentration able to deplete Hsp90 client proteins as well as Geldanamycin at 500 nM", "setting": "[2]; MCF-7 cells, Western blot", "result": 1, "unit": "µM"}, {"measurement": "Hsp90 client proteins Her2, Akt and Raf-1 (Western blot)", "setting": "[2]; MCF-7 lysates, 24 h, L = 1/2 and H = 5 times the antiproliferative IC50", "result": "decreased; also recorded: Clear degradation"}, {"measurement": "IC50", "setting": "MDA-MB-468LN cell line", "result": "0.41 ± 0.26", "unit": "µM"}, {"measurement": "IC50", "setting": "MDA1986 cell line", "result": "0.36 ± 0.05", "unit": "µM"}]}
